The target of this assay is T1, APOL1 (Homo sapiens, UniProt O14791).
T1 sequence (O14791 1-398): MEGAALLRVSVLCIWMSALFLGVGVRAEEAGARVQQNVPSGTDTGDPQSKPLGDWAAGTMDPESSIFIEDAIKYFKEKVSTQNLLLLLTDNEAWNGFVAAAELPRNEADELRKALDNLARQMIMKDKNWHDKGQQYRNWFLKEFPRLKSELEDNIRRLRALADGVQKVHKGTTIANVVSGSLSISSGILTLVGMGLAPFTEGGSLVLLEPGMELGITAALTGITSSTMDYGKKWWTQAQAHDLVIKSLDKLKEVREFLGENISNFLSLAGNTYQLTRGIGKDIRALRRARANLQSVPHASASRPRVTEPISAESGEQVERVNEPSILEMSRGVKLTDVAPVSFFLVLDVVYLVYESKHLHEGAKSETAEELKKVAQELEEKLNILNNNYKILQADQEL
Description: MultiTox-Fluor Multiplex Cytotoxicity Assay, tet-inducible APOL1 T-REx-HEK293 cells (G0, G1 or G2 clone not specified for Table 20). Type of assay: cell-based. The note with it: tet-induced, 24 hours with compound, ratio of dead to live cells, read-out: IP50 (i.e., IC50 for cell proliferation). Summed up: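 HEK293 T-REx cells with tet-inducible APOL1 G0, G1 or G2 clone, 23,400/well, treated with tetracycline plus compound (top 10 μM, 10-point 3-fold, duplicate) for 24 h at 37° C. MultiTox-Fluor dead/live fluorescence ratio, normalized to no-tet (100% viability) and 50 ng/mL tet (0% viability) controls, then curve-fitted.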

Each structure is given as a SMILES string. Where only a bound is given, the exact number is not on record here.

As for `CS(=O)(=O)CCn1cc(CN2CCC3(CC2)OC(C(N)=O)c2ccc(C(F)(F)F)cc23)nn1` (stereo not drawn) [Compound 207, 1′-[[1-(2-methylsulfonylethyl)triazol-4-yl]methyl]-5-(trifluoromethyl)spiro[1H-isobenzofuran-3,4′-piperidine]-1-carboxamide], the IC50 is at least 500 nM. As to `Cc1ccc(Cn2cc(CN3CC[C@]4(C[C@@H]3C)OCCc3ccc(Cl)cc34)nn2)c(=O)[nH]1` [Compound 174], the IC50 is 50 to 500 nM.

Regarding `Cc1ccc(CN2CCC3(CC2)OC(C(N)=O)c2ccc(Cl)cc23)nn1` (stereo not drawn) [Compound 218], the IC50 was at least 500 nM. With `C[C@H]1C[C@@]2(CCN1Cc1cn(Cc3nnc(N(C)C)[nH]3)nn1)OCCc1ccc(Cl)cc12` [Compound 185], the IC50 is 50 to 500 nM. For `CCc1ccc2c(c1)C1(CCN(Cc3cnn(CCS(C)(=O)=O)c3)CC1)C(=O)N2C` [Compound 84], the IC50 was at least 500 nM. As for `NC(=O)C1OC2(CCN(Cc3cnc(C4CC4)o3)CC2)c2cc(Cl)ccc21` (stereo not drawn) [Compound 251], the IC50 is 50 to 500 nM. Under `NC(=O)C1OC2(CCN(Cc3cnn4cccnc34)CC2)c2cc(Cl)ccc21` (stereo not drawn) [Compound 228] stands 50 to 500 nM; under `Cc1ccc2c(c1)C1(CCN(Cc3ccccc3)C(C)C1)OCC2` (stereo not drawn) [Compound 136], 50 to 500 nM; under `CCN1C(=O)C2(CCN(Cc3cnn(CCS(C)(=O)=O)c3)CC2)c2cc(Cl)ccc21` [Compound 48], 50 to 500 nM. Then `C[C@H]1C[C@@]2(CCN1Cc1cnn(CC(=O)N(C)C)c1)OCCc1ccc(Cl)cc12` [Compound 102], with 50 to 500 nM; and `CC(C)n1cc(Cn2cc(CN3CC[C@]4(C[C@@H]3C)OCCc3ccc(Cl)cc34)nn2)c(=O)[nH]c1=O` [Compound 169], with at most 50 nM. With `Cc1ccc2c(c1)C1(CCN(Cc3cnn(CCO)c3)CC1)C(=O)N2` [Compound 26], the IC50 is at least 500 nM. Under `N#Cc1ccc2c(c1)C1(CCN(Cc3cnn(-c4ccccc4)c3)CC1)OC2C(N)=O` (stereo not drawn) [Compound 203, 5-cyano-1′-[(1-phenylpyrazol-4-yl)methyl]spiro[1H-isobenzofuran-3,4′-piperidine]-1-carboxamide] stands at most 50 nM; under `Cc1cc(CN2CCC3(CC2)OC(C(N)=O)c2ccc(Cl)cc23)ccn1` (stereo not drawn) [Compound 261], 50 to 500 nM. Then `C[C@H]1CC2(CCN1Cc1cn(CCS(C)(=O)=O)nn1)OC(C)(C)c1ccc(Cl)cc12` (single isomer, unassigned) [Compound 291, (2′S)-5-chloro-1,1,2′-trimethyl-1′-[[1-(2-methylsulfonylethyl)triazol-4-yl]methyl]spiro[isobenzofuran-3,4′-piperidine]], with at least 500 nM; and `C[C@H]1C[C@@]2(CCN1Cc1cn(CC(O)C(C)(C)O)nn1)OCCc1ccc(Cl)cc12` (stereo partly drawn) [Compound 157], with at most 50 nM. Regarding `C[C@H]1C[C@@]2(CCN1Cc1ccc3c(c1)n(C)c(=O)n3C)OCCc1ccc(Cl)cc12` [Compound 107], the IC50 is at most 50 nM. Then `C[C@H]1C[C@@]2(CCN1Cc1cnn(C(C)(C)C)c1)OCCc1ccc(Cl)cc12` [Compound 120], with 50 to 500 nM.

Take `Cn1cc(CN2CCC3(CC2)C(=O)Nc2ccc(CC(F)F)cc23)cn1` [Compound 34]: the IC50 is at least 500 nM. As for `C[C@H]1C[C@@]2(CCN1Cc1cn(CC(C)(C)CS(N)(=O)=O)nn1)OCCc1ccc(Cl)cc12` [Compound 158], the IC50 is at most 50 nM. Under `C[C@H]1C[C@@]2(CCN1Cc1cn(CC(O)C(C)(C)O)nn1)OCCc1ccc(Cl)cc12` (stereo partly drawn) [Compound 156] stands at most 50 nM; under `COCCn1cc(CN2CCC3(CC2)OC(C(N)=O)c2ccc(Cl)cc23)cn1` (stereo not drawn) [Compound 236], 50 to 500 nM. Then `C[C@H]1C[C@@]2(CCN1Cc1cn(C)nn1)OCCc1ccc(Cl)cc12` [Compound 105], with at most 50 nM; and `N#Cc1ccc(CN2CCC3(CC2)C(=O)Nc2ccc(Cl)cc23)c(F)c1` [Compound 15], with at least 500 nM; and `C[C@H]1C[C@@]2(CCN1Cc1cnn3c1CCC3)OCCc1ccc(Cl)cc12` [Compound 113], with at least 500 nM. Then `N#Cc1cc(CN2CCC3(CC2)C(=O)Nc2ccc(Cl)cc23)ccn1` [Compound 20], with at least 500 nM; and `Cc1ccc2c(c1)C1(CCN(Cc3cnn(CCS(C)(=O)=O)c3)CC1)C(=O)N2` [Compound 23], with 50 to 500 nM. For the compound `C[C@H]1C[C@@]2(CCN1Cc1cn(Cc3ncc4c(n3)CCOC4)nn1)OCCc1ccc(Cl)cc12` [Compound 177], the IC50 was in the range of 50 to 500 nM. On to `Cc1ccc2c(c1)C1(CCN(Cc3cnn(-c4ccccc4)c3)CC1)OC2C(N)=O` (stereo not drawn) [Compound 196], for which the IC50 is at most 50 nM. `Cn1cc(CN2CCC3(CC2)OC(C(N)=O)c2ccc(Cl)cc23)ccc1=O` (stereo not drawn) [Compound 253]: the IC50 fell in the range of 50 to 500 nM. Under `CNC(=O)C1OC2(CCN(Cc3cnn(C(C)C)c3)CC2)c2cc(Cl)ccc21` (stereo not drawn) [Compound 298, 6-chloro-1′-((1-isopropyl-1H-pyrazol-4-yl)methyl)-N-methyl-3H-spiro[isobenzofuran-1,4′-piperidine]-3-carboxamide] stands at least 500 nM. With `CN1C(=O)C2(CCN(Cc3cnn(C[C@H]4C[C@@H](NS(=O)(=O)C5CC5)C4)c3)CC2)c2cc(Cl)ccc21` [Compound 65], the IC50 was at least 500 nM. Regarding `Cc1ncc(CN2CCC3(CC2)OC(C(N)=O)c2ccc(Cl)cc23)cn1` (stereo not drawn) [Compound 215], the IC50 is at least 500 nM. For the compound `CNC(=O)C1OC2(CCN(Cc3cnn(-c4ccccc4)c3)CC2)c2ccccc21` (stereo not drawn) [Compound 190, N-methyl-1′-[(1-phenylpyrazol-4-yl)methyl]spiro[1H-isobenzofuran-3,4′-piperidine]-1-carboxamide], the IC50 is at least 500 nM.

As to `C[C@H]1C[C@@]2(CCN1Cc1cn(C3CN(S(C)(=O)=O)C3)nn1)OCCc1ccc(Cl)cc12` [Compound 150], the IC50 is at most 50 nM. Under `CNC(=O)C1OC2(CCN(Cc3cnn(-c4ccccc4)c3)CC2)c2cc(C)ccc21` (stereo not drawn) [Compound 198] stands at most 50 nM; under `NC(=O)C1OC2(CCN(Cc3cn[nH]c3)CC2)c2cc(Cl)ccc21` (stereo not drawn) [Compound 226, 5-chloro-1′-(1H-pyrazol-4-ylmethyl)spiro[1H-isobenzofuran-3,4′-piperidine]-1-carboxamide], at most 50 nM. Under `C[C@H]1C[C@@]2(CCN1Cc1cn(CCNS(=O)(=O)C3CC3)nn1)OCCc1ccc(Cl)cc12` [Compound 187] stands at most 50 nM. Take `C[C@H]1C[C@@]2(CCN1Cc1cn(Cc3nccn(C)c3=O)nn1)OCCc1ccc(Cl)cc12` [Compound 176]: the IC50 fell in the range of 50 to 500 nM. In the case of `CNC(=O)C1OC2(CCN(Cc3cnn(-c4ccccc4)c3)CC2)c2cc(C(F)(F)F)ccc21` (stereo not drawn) [Compound 199], the IC50 fell in the range of 50 to 500 nM. Consider `NC(=O)C1OC2(CCN(Cc3c[nH]c4ncncc34)CC2)c2cc(Cl)ccc21` (stereo not drawn) [Compound 229], for which the IC50 was at least 500 nM. Turning to `Cn1cc(CN2CCC3(CC2)NCc2ccc(Cl)cc23)cn1` [Compound 311, 6-chloro-1′-[(1-methylpyrazol-4-yl)methyl]spiro[isoindoline-1,4′-piperidine]], the IC50 is at least 500 nM. Take `C[C@H]1C[C@@]2(CCN1Cc1cn(Cc3ccnc(CO)c3)nn1)OCCc1ccc(Cl)cc12` [Compound 142, (4-((4-(((1R,2′S)-7-chloro-2′-methylspiro[isochromane-1,4′-piperidin]-1′-yl)methyl)-1H-1,2,3-triazol-1-yl)methyl)pyridin-2-yl)methanol]: the IC50 was 50 to 500 nM. With `CS(=O)(=O)CCn1cc(CN2CCC3(CC2)C(=O)N(CC(F)(F)F)c2ccc(Cl)cc23)cn1` [Compound 50], the IC50 lay in the range of 50 to 500 nM. Then `C[C@H]1CC2(CCN1Cc1cnn(CCS(C)(=O)=O)c1)CC(O)c1ccc(Cl)cc12` (single isomer, unassigned) [Compound 306, (2′S)-5-chloro-2′-methyl-1′-[[1-(2-methylsulfonylethyl)pyrazol-4-yl]methyl]spiro[indane-3,4′-piperidine]-1-ol], with at most 50 nM; and `C[C@H]1C[C@@]2(CCN1Cc1cn(CC(C)(C)NS(C)(=O)=O)nn1)OCCc1ccc(Cl)cc12` [Compound 167], with at most 50 nM; and `C[C@H]1C[C@@]2(CCN1Cc1cn(C3CC(=O)N(C)C3)nn1)OCCc1ccc(Cl)cc12` (stereo partly drawn) [Compound 146], with at most 50 nM.

Turning to `O=C1N(CCO)c2ccc(Cl)cc2C12CCN(Cc1cn[nH]c1)CC2` [Compound 46], the IC50 was 50 to 500 nM.
